Experimental data reported in ChEMBL document CHEMBL1126911, “Synthesis and binding properties of 2-amino-5-phosphono-3-pentenoic acid photoaffinity ligands as probes for the glutamate recognition site of the NMDA receptor” (J Med Chem, 1993).

How the values were obtained:
Glutamate NMDA receptor [1] = assay: Tested for in vitro binding affinity against NMDA receptor by using [3H]-CGP- 39653 as radioligand in rat forebrain membranes.; type: cell membranes
Glutamate NMDA receptor [2] = assay: Tested for in vitro binding affinity against NMDA receptor by using [3H]-CGP- 39653 as radioligand in rat forebrain membranes; type: cell membranes, Membrane

Row | SMILES | IC50 (Glutamate NMDA receptor [1]) [nM] | IC50 (Glutamate NMDA receptor [2]) [nM]
1 | [N-]=[N+]=Nc1ccc(C(=O)NCCCCCC/C(=C\C(N)C(=O)O)CP(=O)(O)O)c(O)c1I (stereo not given) | 34 | 
2 | NCCCCCC/C(=C\C(N)C(=O)O)CP(=O)(O)O (stereo not given) | 42 | 
3 | NC(/C=C(\CCCCCCNC(=O)c1ccccc1)CP(=O)(O)O)C(=O)O (stereo not given) |  | 106

Continued by falling IC50 (Glutamate NMDA receptor [1]), values first:

Row | IC50 (Glutamate NMDA receptor [1]) [nM] | IC50 (Glutamate NMDA receptor [2]) [nM] | SMILES
4 | 38 |  | [N-]=[N+]=Nc1ccc(C(=O)NCCCCCC/C(=C\C(N)C(=O)O)CP(=O)(O)O)cc1 (stereo not given)
5 | 36 |  | [N-]=[N+]=Nc1ccc(C(=O)NCCCCCC/C(=C\C(N)C(=O)O)CP(=O)(O)O)c(O)c1 (stereo not given)
